Reference: patent publication US20260347346A1, “SUBSTITUTED 6-(PYRIMIDIN-4-YL)QUINOLINE COMPOUNDS AS CYCLIN DEPENDENT KINASE INHIBITORS” (BeOne Medicines I GmbH, priority 2022, published 2026)

Legend:
CDK4/Cyclin D1 = CDK4/Cyclin D1 (Homo sapiens, UniProt P11802); assay: inhibition of CDK4/Cyclin D1 kinase, TR-FRET; assay type: biochemical; settings: CDK4/Cyclin D1, 1 mM ATP, 0.15 μM Rb (Ser780)-biotin substrate, pH 7.0, 60 min preincubation, 120 min reaction, room temperature; read-out: CDK4D1 IC50
Sequence of CDK4/Cyclin D1 (P11802 whole entry): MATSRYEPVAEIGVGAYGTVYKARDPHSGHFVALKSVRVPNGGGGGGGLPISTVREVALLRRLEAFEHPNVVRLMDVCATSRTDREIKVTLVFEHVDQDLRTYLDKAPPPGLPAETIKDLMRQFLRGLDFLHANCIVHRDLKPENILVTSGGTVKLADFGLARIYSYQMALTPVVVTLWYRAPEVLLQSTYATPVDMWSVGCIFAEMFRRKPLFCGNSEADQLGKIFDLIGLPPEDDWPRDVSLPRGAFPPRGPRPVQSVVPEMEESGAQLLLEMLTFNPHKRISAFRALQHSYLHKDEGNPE
Sequence of CDK4/Cyclin D1 (P24385 whole entry partner): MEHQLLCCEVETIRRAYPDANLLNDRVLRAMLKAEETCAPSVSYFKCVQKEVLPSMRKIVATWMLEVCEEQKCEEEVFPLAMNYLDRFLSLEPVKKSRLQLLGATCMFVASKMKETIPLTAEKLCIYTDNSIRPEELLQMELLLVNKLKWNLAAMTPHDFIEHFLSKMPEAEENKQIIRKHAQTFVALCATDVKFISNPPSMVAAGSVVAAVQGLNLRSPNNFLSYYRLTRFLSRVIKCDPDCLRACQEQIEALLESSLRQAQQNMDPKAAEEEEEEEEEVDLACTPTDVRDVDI
Procedure: (§1) Compounds disclosed herein were tested for inhibition of CDK4/Cyclin D1 or CDK6/Cyclin D3 kinase in an assay based on the time-resolved fluorescence-resonance energy transfer (TR-FRET) methodology. The assay was carried out in 384-well low volume black plates in a reaction mixture containing CDK4/Cyclin D1 or CDK6/Cyclin D3, 1 mM ATP, 0.15 μM Rb (Ser780)-biotin substrate and 0-10 μM compound in buffer containing 50 mM HEPES pH7.0, 0.02% NaN3, 0.01% BSA, 0.1 mM Orthovanadate, 50 mM MgCl2, 1 mM DTT and 0.005% Tween-20. The kinase was incubated with compound for 60 minutes at room temperature and the reaction was initiated by the addition of ATP and Rb (Ser780)-biotin substrate. After reaction at room temperature for 120 minutes, an equal volume of stop/detection solution was added according to the manufacture's instruction (Cisbio Bioassays). The stop/detection solution contained Streptavidin-XL665 and Anti-pRb (Ser780) mAb-Eu Cryptate in Detection buffer (Cisbio Bioassays). Plates were incubated at room temperature for 60 minutes, and the TR-FRET signals (ex337 nm, em665 nm/620 nm) were recorded on a PHERAstar FSX plate reader (BMG Labtech). The inhibition percentage of CDK4/Cyclin D1 or CDK6/Cyclin D3 kinase activity in presence of increasing concentrations of compounds was calculated based on the ratio of fluorescence at 665 nm to that at 620 nm. The IC50 for each compound was derived from fitting the data to the four-parameter logistic equation by Dotmatics.

CDK6/Cyclin D3 = CDK6/Cyclin D3 (Homo sapiens, UniProt Q00534); assay: inhibition of CDK6/Cyclin D3 kinase, TR-FRET; assay type: biochemical; settings: CDK6/Cyclin D3, 1 mM ATP, 0.15 μM Rb (Ser780)-biotin substrate, pH 7.0, 60 min preincubation, 120 min reaction, room temperature; read-out: CDK6D3 IC50
Sequence of CDK6/Cyclin D3 (Q00534 whole entry): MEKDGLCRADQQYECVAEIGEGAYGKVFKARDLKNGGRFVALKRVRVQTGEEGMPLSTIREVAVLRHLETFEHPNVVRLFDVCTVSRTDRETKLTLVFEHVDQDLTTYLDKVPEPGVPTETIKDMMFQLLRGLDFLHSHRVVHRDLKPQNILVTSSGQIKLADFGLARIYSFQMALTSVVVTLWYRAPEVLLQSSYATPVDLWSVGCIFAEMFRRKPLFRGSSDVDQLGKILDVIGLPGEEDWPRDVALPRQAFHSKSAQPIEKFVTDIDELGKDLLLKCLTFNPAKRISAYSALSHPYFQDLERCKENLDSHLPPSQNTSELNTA
Sequence of CDK6/Cyclin D3 (P30281 whole entry partner): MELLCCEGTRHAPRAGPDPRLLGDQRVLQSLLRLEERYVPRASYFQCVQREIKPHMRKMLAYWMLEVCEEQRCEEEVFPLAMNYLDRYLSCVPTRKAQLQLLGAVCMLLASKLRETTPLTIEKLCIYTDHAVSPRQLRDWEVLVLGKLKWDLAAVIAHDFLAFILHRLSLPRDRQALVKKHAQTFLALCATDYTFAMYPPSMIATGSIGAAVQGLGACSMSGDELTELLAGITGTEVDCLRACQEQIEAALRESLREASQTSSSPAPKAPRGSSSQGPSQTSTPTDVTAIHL
Procedure: as §1

| Compound | IC50 (CDK4/Cyclin D1) [nM] | IC50 (CDK6/Cyclin D3) [nM] |
| --- | --- | --- |
| COC(=O)c1ccnc2c(F)cc(-c3nc(N[C@@H]4CCOC[C@H]4O)ncc3F)cc12 [Example A1, methyl 8-fluoro-6-(5-fluoro-2-(((3S,4R)-3-hydroxytetrahydro-2H-pyran-4-yl)amino)pyrimidin-4-yl) quinoline-4-carboxylate] | 122 | 688 |
| C[C@H](N)c1ccnc2c(F)cc(-c3nc(N[C@@H]4CCOC[C@H]4O)ncc3F)cc12 [Example A6, (3S,4R)-4-((4-(4-((S)-1-aminoethyl)-8-fluoroquinolin-6-yl)-5-fluoropyrimidin-2-yl)amino)tetrahydro-2H-pyran-3-ol] | 32 | 760 |
| CC(C)(O)c1ccnc2c(F)cc(-c3nc(NC4CCNCC4)ncc3F)cc12 [Example A5, 2-(8-fluoro-6-(5-fluoro-2-(piperidin-4-ylamino)pyrimidin-4-yl)quinolin-4-yl) propan-2-ol] | 83 | 220 |
| C[C@@H](N)c1ccnc2c(F)cc(-c3nc(N[C@@H]4CCOC[C@H]4O)ncc3F)cc12 [Example A7, (3S,4R)-4-((4-(4-((R)-1-aminoethyl)-8-fluoroquinolin-6-yl)-5-fluoropyrimidin-2-yl)amino)tetrahydro-2H-pyran-3-ol] | 97 | 2380 |
| CC(C)(C)OC(=O)N1CCC(Nc2ncc(F)c(-c3cc(F)c4nccc(C(C)(C)O)c4c3)n2)CC1 [Example A4, tert-butyl 4-((5-fluoro-4-(8-fluoro-4-(2-hydroxypropan-2-yl)quinolin-6-yl)pyrimidin-2-yl)amino) piperidine-1-carboxylate] | 171 | 1700 |
| Cc1cc(C(C)(C)O)c2cc(-c3nc(N[C@@H]4CCOC[C@H]4O)ncc3F)cc(F)c2n1 [Example A3, (3S,4R)-4-((5-fluoro-4-(8-fluoro-4-(2-hydroxypropan-2-yl)-2-methylquinolin-6-yl)pyrimidin-2-yl)amino)tetrahydro-2H-pyran-3-ol] | 33 | 249 |
| CC(C)(O)c1ccnc2c(F)cc(-c3nc(N[C@@H]4CCOC[C@H]4O)ncc3F)cc12 [Example A2, (3S,4R)-4-((5-fluoro-4-(8-fluoro-4-(2-hydroxypropan-2-yl)quinolin-6-yl)pyrimidin-2-yl)amino)tetrahydro-2H-pyran-3-ol] | 12 | 84 |
